Test results taken from PubChem BioAssay AID248 (DTP/NCI, 2004).
“And” between values parts separate entries of the source, which are not always exact repeats. Identical values can stand only once. Toxic doses and inconclusive results are not listed. Rule as the data show it: active = T/C of 150% or more; inactive = T/C below 125%.

Test system: L1210 leukemia ip in BDF1 mice, survival T/C
Experiment: NCI In Vivo Anticancer Drug Screen. Data for tumor model L1210 Leukemia (intraperitoneal) in B6D2F1 (BDF1) mice
Settings: endpoint: mean survival time, higher = longer survival
Outline: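 Read-out is survival time, reported as the treated-group measurement over the vehicle-control measurement.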

[1] = dose: 100.0 mg/kg/injection, schedule: Q01DX009 (ip), vehicle: Klucel (hydroxypropylcellulose) (HPC)
[2] = dose: 100.0 mg/kg/injection, schedule: Q04DX003 (ip), vehicle: Klucel (hydroxypropylcellulose) (HPC)
[3] = dose: 200.0 mg/kg/injection, schedule: Q01DX009 (ip), vehicle: Klucel (hydroxypropylcellulose) (HPC)
[4] = dose: 200.0 mg/kg/injection, schedule: Q04DX003 (ip), vehicle: Klucel (hydroxypropylcellulose) (HPC)
[5] = dose: 400.0 mg/kg/injection, schedule: Q01DX009 (ip), vehicle: Klucel (hydroxypropylcellulose) (HPC)
[6] = dose: 400.0 mg/kg/injection, schedule: Q04DX003 (ip), vehicle: Klucel (hydroxypropylcellulose) (HPC)
[7] = dose: 25.0 mg/kg/injection, schedule: Q04DX002 (ip), vehicle: saline with Tween-80
[8] = dose: 50.0 mg/kg/injection, schedule: Q04DX002 (ip), vehicle: saline with Tween-80
[9] = dose: 100.0 mg/kg/injection, schedule: Q01DX001 (ip), vehicle: saline
[10] = dose: 100.0 mg/kg/injection, schedule: Q04DX003 (ip), vehicle: saline
[11] = dose: 200.0 mg/kg/injection, schedule: Q01DX001 (ip), vehicle: saline
[12] = dose: 200.0 mg/kg/injection, schedule: Q04DX003 (ip), vehicle: saline
[13] = dose: 400.0 mg/kg/injection, schedule: Q01DX001 (ip), vehicle: saline
[14] = dose: 400.0 mg/kg/injection, schedule: Q04DX003 (ip), vehicle: saline
[15] = dose: 25.0 mg/kg/injection, schedule: Q01DX009 (ip), vehicle: Klucel (hydroxypropylcellulose) (HPC)
[16] = dose: 50.0 mg/kg/injection, schedule: Q01DX009 (ip), vehicle: Klucel (hydroxypropylcellulose) (HPC)
[17] = dose: 50.0 mg/kg/injection, schedule: Q04DX003 (ip), vehicle: Klucel (hydroxypropylcellulose) (HPC)
[18] = dose: 25.0 mg/kg/injection, schedule: Q01DX001 (ip), vehicle: saline with Tween-80
[19] = dose: 50.0 mg/kg/injection, schedule: Q01DX001 (ip), vehicle: saline with Tween-80
[20] = dose: 100.0 mg/kg/injection, schedule: Q01DX001 (ip), vehicle: saline with Tween-80
[21] = dose: 100.0 mg/kg/injection, schedule: Q01DX009 (ip), vehicle: saline with Tween-80

Measured: T/C

C=C(C)C1(CCC(C)C)C(=O)NC(=O)NC1=O
inactive: dose: 75.0 mg/kg/injection, schedule: Q01DX001 (ip), vehicle: saline 109 % of control | dose: 150.0 mg/kg/injection, schedule: Q01DX001 (ip), vehicle: saline 104 % of control | dose: 300.0 mg/kg/injection, schedule: Q01DX001 (ip), vehicle: saline 105 % of control

c1ccc(C2=C(c3ccccc3)C23SCCS3)cc1
inactive: [1] 101 % of control | [2] 94 % of control | [3] 97 % of control | [4] 100 % of control | [5] 98 % of control | [6] 96 % of control

COc1ccc(OC(=O)Nc2cccc(Cl)c2)cc1
inactive: [1] 94 % of control | [3] 100 % of control | [5] 100 % of control

O=C(Nc1ccccc1)OCCc1ccc([N+](=O)[O-])cc1
inactive: [2] 100 % of control | [4] 98 % of control | [6] 102 % of control

C1CCC(NC2=NCCO2)CC1
inactive: dose: 12.5 mg/kg/injection, schedule: Q04DX002 (ip), vehicle: saline with Tween-80 101 % of control | [7] 93 % of control | [8] 90 % of control

COc1ccc(/C=C(\CC(=O)c2ccccc2)C(=O)Nc2ccccc2)cc1
inactive: [9] 93 % of control | [10] 109 % of control | [11] 96 % of control | [12] 98 % of control | [13] 103 % of control | [14] 95 % of control

Cc1ncc(N)c2c1OC(C)(C)OC2
inactive: dose: 50.0 mg/kg/injection, schedule: Q01DX001 (ip), vehicle: saline 91 % of control

O=C1C2CCC(=O)N2c2ccccc2S(=O)(=O)C1c1ccccc1 (centres undefined)
inactive: dose: 12.5 mg/kg/injection, schedule: Q01DX009 (ip), vehicle: Klucel (hydroxypropylcellulose) (HPC) 95 % of control | [15] 98 % of control | dose: 25.0 mg/kg/injection, schedule: Q04DX003 (ip), vehicle: Klucel (hydroxypropylcellulose) (HPC) 96 % of control | [16] 91 % of control | [17] 96 % of control

C/C(=N\NC(=O)c1ccccc1)c1ccc(-c2ccccc2)cc1
inactive: [1] 94 % of control | [3] 105 % of control | [5] 94 % of control

O=C1c2ccccc2C(=O)c2cc(/C=N/Nc3ccc([N+](=O)[O-])cc3[N+](=O)[O-])ccc21
inactive: dose: 100.0 mg/kg/injection, schedule: Q01DX001 (ip), vehicle: Klucel (hydroxypropylcellulose) (HPC) 93 % of control | dose: 200.0 mg/kg/injection, schedule: Q01DX001 (ip), vehicle: Klucel (hydroxypropylcellulose) (HPC) 90 % of control | dose: 400.0 mg/kg/injection, schedule: Q01DX001 (ip), vehicle: Klucel (hydroxypropylcellulose) (HPC) 86 % of control

NC(=O)C1CCCN1Cc1ccc2c(c1)OCO2 (centres undefined)
inactive: [9] 97 % of control | [11] 94 % of control | [13] 94 % of control

COCCOCCOC(C)Oc1ccc(C(=O)OC)cc1 (centres undefined)
inactive: dose: 100.0 mg/kg/injection, schedule: Q04DX002 (ip), vehicle: saline 105 % of control | dose: 200.0 mg/kg/injection, schedule: Q04DX002 (ip), vehicle: saline 92 % of control | dose: 400.0 mg/kg/injection, schedule: Q04DX002 (ip), vehicle: saline 108 % of control

O=c1cc([N+](=O)[O-])n(O)cc1[N+](=O)[O-]
inactive: [9] 102 % of control | [11] 108 % of control | [13] 102 % of control

O=C(Nc1ccc(Cl)c(Cl)c1)c1ccco1
inactive: dose: 12.5 mg/kg/injection, schedule: Q01DX009 (ip), vehicle: saline with Tween-80 92 % of control and 93 % of control | [18] 97 % of control | [7] 116 % of control and 91 % of control | dose: 25.0 mg/kg/injection, schedule: Q04DX003 (ip), vehicle: saline with Tween-80 96 % of control | [19] 103 % of control | [8] 116 % of control and 91 % of control | dose: 50.0 mg/kg/injection, schedule: Q04DX003 (ip), vehicle: saline with Tween-80 93 % of control | [20] 109 % of control | [21] 93 % of control | dose: 100.0 mg/kg/injection, schedule: Q04DX003 (ip), vehicle: saline with Tween-80 95 % of control

C#CCOCC(O)CCl (centres undefined)
inactive: dose: 75.0 mg/kg/injection, schedule: Q01DX001 (ip), vehicle: acetone 101 % of control | dose: 150.0 mg/kg/injection, schedule: Q01DX001 (ip), vehicle: acetone 92 % of control | dose: 300.0 mg/kg/injection, schedule: Q01DX001 (ip), vehicle: acetone 89 % of control

CCCCCc1cc2c3c(c(=O)oc2cc1O)CCCCC3
inactive: dose: 100.0 mg/kg/injection, schedule: Q04DX003 (ip), vehicle: gum acacia 90 % of control | dose: 200.0 mg/kg/injection, schedule: Q04DX003 (ip), vehicle: gum acacia 88 % of control | dose: 400.0 mg/kg/injection, schedule: Q04DX003 (ip), vehicle: gum acacia 96 % of control

c1ccc(COc2ccc3oc4ccccc4c3c2)cc1
inactive: [1] 96 % of control | [2] 94 % of control | [3] 94 % of control | [4] 96 % of control | [5] 96 % of control | [6] 91 % of control

CC(C)N1CCC(=O)NC1=O
inactive: [2] 94 % of control | [10] 94 % of control | [4] 94 % of control | [12] 92 % of control | [6] 91 % of control | [14] 103 % of control

O=C(Nc1cccc(F)c1)Nc1cc([N+](=O)[O-])ccc1Cl
inactive: [1] 97 % of control | [3] 94 % of control | [5] 94 % of control and 97 % of control

Cc1nc(N)[nH]c(=O)c1CCCNC(=O)c1ccc(CBr)cc1
inactive: [18] 95 % of control | [19] 88 % of control | [20] 97 % of control

CS(=O)c1cc2c(cc1[N+](=O)[O-])C(=O)c1ccccc1-2 (centres undefined)
inactive: dose: 20.0 mg/kg/injection, schedule: Q01DX009 (ip), vehicle: Klucel (hydroxypropylcellulose) (HPC) 107 % of control | dose: 40.0 mg/kg/injection, schedule: Q01DX009 (ip), vehicle: Klucel (hydroxypropylcellulose) (HPC) 117 % of control | [17] 97 % of control | [1] 95 % of control | [2] 93 % of control

O=[N+]([O-])c1ccc(C=Nc2ccccc2S)s1
inactive: [2] 100 % of control | [4] 96 % of control | [6] 94 % of control

C/C(=C\c1ccc2c(c1)OCO2)[N+](=O)[O-]
inactive: [15] 97 % of control | [16] 89 % of control | dose: 50.0 mg/kg/injection, schedule: Q01DX009 (ip), vehicle: saline with Tween-80 108 % of control | [17] 94 % of control | [1] 98 % of control and 87 % of control | [21] 87 % of control | [2] 103 % of control | [4] 100 % of control | [6] 97 % of control

CC(C)(C)C(=O)/C=C(\C=S(C)(C)=O)c1ccccc1
inactive: dose: 25.0 mg/kg/injection, schedule: Q04DX003 (ip), vehicle: saline 105 % of control | dose: 50.0 mg/kg/injection, schedule: Q04DX003 (ip), vehicle: saline 97 % of control | [10] 100 % of control
